Key:
[1] = Toxicity and PK/TK profile studies (all toxicity studies); assay type: in vivo, mice and cynomolgus monkeys
From the text: (§1) This compartimentalization is lost upon malignant transformation rendering the epitope drugable by IMAB362.

[2] = target: first extracellular domain (ECD1) of CLDN18.2 (Homo sapiens, UniProt P56856); experiment: Binding of IMAB362 to CLDN18.2
NUGC-4 xenografts = experiment: In vivo tumor targeting of Dyelight 680-labeled antibodies (fluorescence imaging); parameters: species or system nude mice
[3] = Repeated dose toxicity study in mice; assay type: in vivo; settings: weekly administration for 3 months, highest dose levels 400 mg/kg
From the text: as §1

[4] = system: CLDN18.2-negative HEK293 tumor cells; experiment: IMAB362 treatment of mice engrafted with CLDN18.2-negative tumor cells; assay type: in vivo; settings: CLDN18.2-negative tumors
From the text: (§2) Treatment of 9 to 10 mice per group was initiated when mean tumor volumes reached 88 mm^3 (62-126 mm^3). […] All mice in the groups treated with either PBS or isotype control died within 50-100 days. […] Three of these mice survived the entire observation period (FIG. 20). Importantly, antitumoral efficacy in vivo depends on the presence of the target on the tumor cells.

[5] = system: NUGC-4~CLDN18.2 xenograft tumors; experiment: Combination therapy with IMAB362 and EOF regimen on NUGC-4~CLDN18.2 xenografts; assay type: in vivo, nude mice; settings: chemotherapy day 3, 10, 17, 24; IMAB362 weekly
Method: Mice were treated on day 3, 10, 17 and 24 with chemotherapeutic agents. IMAB362 treatment was continued weekly.

[6] = system: NUGC-4~CLDN18.2 xenografts; experiment: IMAB362 immunotherapy of NUGC-4~CLDN18.2 xenografts; parameters: species or system mice; settings: mouse, in vivo
[7] = system: CLDN18.2-positive cancer cell lines; experiment: IMAB362 treatment of mice bearing CLDN18.2-positive cancer cell lines; settings: mouse, in vivo
[8] = Repeated dose toxicity studies in cynomolgus monkeys; assay type: in vivo; settings: up to 5 weekly applications of up to 100 mg/kg
From the text: as §1

[9] = system: NUGC-4 gastric cancer cells; experiment: IMAB362-mediated ADCC on chemotherapy-pretreated NUGC-4 cells; assay type: cell-based, human; settings: NUGC-4 pretreated with 5-FU+OX, EOF or FLO for 96 hours
Method: IMAB362-mediated ADCC was investigated using NUGC-4 gastric cancer cells as target, which were either pretreated with 10 ng/ml 5-FU and 500 ng/ml oxaliplatin (5-FU+OX), 10 ng/ml epirubicin, 500 ng/ml oxaliplatin and 10 ng/ml 5-FU (EOF) or 10 ng/ml 5-FU, 50 ng/ml folinic acid and 500 ng/ml oxaliplatin (FLO) for 96 hours (effector:target ratio 40:1) or untreated. EC50 values were obtained from 7 healthy donors for untreated and EOF, FLO or 5-FU+OX pretreated NUGC-4 cells.

[10] = system: CLDN18.2-transfected HEK293 cells; experiment: IMAB362 with ZA/IL-2 induced Vγ9Vδ2 T cells on HEK293~CLDN18.2 tumors in NSG mice; assay type: in vivo; settings: 200 μg IMAB362 semi-weekly in the presence of human γδ T cells and ZA (plus IL-2)
Method: NSG mice lack mature T cells, B cells, natural killer (NK) cells, multiple cytokine signaling pathways, and they have many defects in innate immunity, whereas the niches in the primary and secondary immunological tissues are permissive to colonization by human immune cells.
NSG mice were inoculated subcutaneously with 1×10^7 CLDN18.2-transfected HEK293 cells. On the same day, mice received 8×10^6 human PBMCs enriched for Vγ9Vδ2 T cells, which were cultured for 14 days in ZA-supplemented medium. […] To maintain human T cells functional, IL-2 was administered semi-weekly and ZA weekly. […] In addition to 9 mice treated as described, two control groups of mice were established.

[11] = system: NCI-N87~CLDN18.2 xenograft tumors; experiment: IMAB362 immunotherapy of NCI-N87~CLDN18.2 gastric carcinoma xenografts
From the text: NCI-N87˜CLDN18.2 xenograft tumors were inoculated subcutaneously by injection of 1×10^7 NCI-N87˜CLDN18.2 cells into the flank of 8 nude mice (female, 6 weeks old) per treatment group. […] Intravenous administration was continued weekly for the whole observation time. Tumor size and animal health was monitored semi-weekly. […] Mice were sacrificed, when tumor reached a volume of 1400 mm^3

[12] = system: HEK293~CLDN18.2 tumor xenografts; experiment: Treatment of advanced HEK293~CLDN18.2 tumor xenografts; assay type: in vivo, nude mice
From the text: (§3) Moreover, advanced tumor treatment experiments were initiated up to 9 days after tumor cell inoculation when tumors had reached volumes of about 60-120 mm^3.
as §2

[13] = Phase I clinical study, single intravenous administration; assay type: in vivo, human
From the text: IMAB362 is in early clinical testing. A phase I clinical study has been conducted in human. […] In an ongoing phase IIa clinical study IMAB362 is given repetitively.

[14] = system: HEK293~CLDN18.2 transfectants; experiment: Early treatment of HEK293~CLDN18.2 tumor xenografts; assay type: in vivo, nude mice; settings: 200 μg twice per week for 6 weeks i.v./i.p., start 3 days after inoculation
From the text: as §3
Nude mice were subcutaneously inoculated with 1×10^7 HEK293˜CLDN18.2 transfectants. Treatment of 10 mice per group started 3 days after tumor inoculation. […] Not only time to death was prolonged, but 4 of 10 mice survived the entire observation period of 210 days.

[15] = system: NUGC-4 gastric cancer cells; experiment: NUGC-4 gastric tumor xenograft model
From the text: Tumor sizes were monitored twice weekly.
Mice were stratified size-dependently into treatment groups (FIG. 21).

[16] = system: CLDN18.2-positive (NUGC-4, KATO III) and negative (SK-BR-3) human target cell lines; experiment: IMAB362 ADCC with ZA/IL-2 expanded effector cells on CLDN18.2-positive and negative target cell lines; assay type: cell-based
Method: These effector cell cultures were used in ADCC assays with CLDN18.2-positive (NUGC-4, KATO III) and negative (SK-BR-3) human target cell lines (E:T ratio 40:1). […] ADCC was measured in luciferase assays; cf. FIG. 15a. […] FIG. 15b. Same experiment as described in (a) was performed using NUGC-4 as target cells; cf. FIG. 15c. […] A purity of more than 97.0% Vγ9Vδ2 T cells in lymphocytes was obtained.

[17] = system: NCI-N87~CLDN18.2 xenograft tumors; experiment: Combination therapy with IMAB362 and EOF regimen on NCI-N87~CLDN18.2 xenografts
Method: NCI-N87˜CLDN18.2 xenograft tumors were inoculated by injection of 1×10^7 NCI-N87˜CLDN18.2 cells subcutaneous into the flank of 9 mice for each treatment group. […] Tumor size and animal health was monitored semi-weekly. […] The size of s.c. tumors was measured twice weekly (mean+SEM; *p<0.05). […] Mice were sacrificed, when tumor reached a volume of 1400 mm^3.

[18] = system: CLS-103~cldn18.2 allograft tumors; experiment: Combination therapy with IMAB362 and EOF on CLS-103~cldn18.2 allograft tumors; assay type: in vivo, NMRI mice; settings: EOF i.p. day 3, 10, 17, 24; IMAB362 800 μg i.v.; IL-2 3000 IE s.c. semi-weekly
From the text: CLS-103˜cldn18.2 allograft tumors were inoculated by injection of 1×10^6 CLS-103˜cldn18.2 cells subcutaneous into the flank of 10 NMRI mice for each treatment group. […] After end of chemotherapy, IMAB362 and IL-2 treatment was continued for the whole observation period. Tumor size and animal health were monitored semi-weekly.

[19] = system: NUGC-4 cells expressing CLDN18.2; experiment: IMAB362 ADCC on NUGC-4 cells with PBMCs cultivated with IL-2 with or w/o ZA (luciferase assay); assay type: cell-based, human; settings: PBMCs cultivated for 14 days with ZA/IL-2; IMAB362 0.26 ng/ml-200 μg/ml
Method: Specific killing was determined in luciferase assays; cf. FIG. 14a. […] NUGC-4 served as target cells.

IMAB362: chimeric IgG1 antibody directed against CLDN18.2, developed by Ganymed Pharmaceuticals AG
gastric toxicity ([1]; any toxicity study): no gastric toxicity
adverse effects on male or female reproductive organs ([1]; in vivo): No adverse effects
immune activation and cytokine release ([1]; in vivo): does not induce immune activation and cytokine release
systemic or local toxicity ([1]; repeated i.v. doses): No signs of systemic or local toxicity
affinity and specificity for CLDN18.2 ECD1 [2]: high affinity and specificity
localisation of labeled antibody, live imaging (NUGC-4 xenografts; 24 hours after i.v. injection, 80 μg Dyelight 680-labeled antibody): accumulates strongly and exclusively in the tumor xenografts
retention of labeled antibody signal in tumor (NUGC-4 xenografts; 120 hours after injection): detectable in comparable intensity even after 120 hours
tolerability of repeated i.v. doses [3]: well tolerated
antitumoral effects [4]: No antitumoral effects
tumor growth [5]: inhibited significantly the tumor growth
survival [6]: significantly (p<0.05) longer survival
tumor sizes at day 14 of treatment [6]: significant (p<0.05) smaller tumor sizes
mice showing regression of their tumor [7]: up to 40%
tolerability of repeated i.v. doses [8]: well tolerated
maximal lysis in IMAB362-mediated ADCC versus untreated target cells [9]: higher maximal lysis
outgrowth of CLDN18.2-positive tumors [10]: significantly inhibited and nearly abrogated
tumor growth ([11]; 800 μg i.v. weekly from day 5, versus saline): inhibited highly significant (p<0.001) tumor growth
survival time ([11]; 800 μg i.v. weekly, sacrifice at 1400 mm^3): significantly (p<0.05) longer survival time
median survival time ([12]; 200 μg twice per week for 6 weeks, start at mean tumor volume 88 mm^3, controls 25 days): 47 days
mice surviving the entire observation period ([12]; 9 to 10 mice per group): Three
tolerability in patients ([13]; single i.v. administration, 33-1000 mg/m^2, observed for 28 days): very well tolerated
tumor markers in one patient ([13]; within 4 weeks after treatment): decreased significantly
mice surviving the entire observation period of 210 days [14]: 4 of 10
tumor growth compared to controls ([15]; 200 μg twice weekly i.v./i.p. starting 6 days after inoculation, p<0.05): significant inhibited
tumor volumes at day 21 after tumor inoculation compared to control mice ([15]; p<0.05): significant smaller
median survival time ([15]; treatment initiated at about 109 mm^3, versus 25 days, non-significant): 31 days
tumor growth rate ([15]; treatment initiated at mean tumor size of about 109 mm^3): significantly reduce tumor growth rate
ADCC activity with purified (>97%) Vγ9Vδ2 T cells ([16]; NUGC-4 targets, cells sorted from ZA/IL-2-cultured PBMC on day 14): retained and partly improved
ADCC activity on CLDN18.2-positive versus CLDN18.2-negative cell lines ([16]; ZA/IL-2 cultured effector cells, E:T ratio 40:1): Strong ADCC activity against CLDN18.2-positive, but not CLDN18.2-negative human tumor cell lines
tumor growth ([17]; EOF i.p. day 4, 11, 18, 25, IMAB362 800 μg i.v. weekly): highly significant suppressed tumor growth
median survival ([17]; saline control 59 days, sacrifice at 1400 mm^3): 76 days
tumor growth inhibition [18]: no significant tumor growth inhibition
ADCC activity against CLDN18.2-positive NUGC-4 cells [19]: Strong IMAB362-dependent ADCC activity

From patent publication US12059464B2, “Combination therapy involving antibodies against Claudin 18.2 for treatment of cancer” (Astellas Pharma Inc., priority 2012, dated 2024)
